# Read-outs that look alike come from different tables or passages of the source.
# Legend:
# [1] = supplementation of the diet; cited from earlier work
# [2] = test system: Saccharomyces cerevisiae 3053-E000; assay type: cell-based; settings: for yield of biomass obtained (change): 48 h; for concentration from which an effect on growth / biomass yield begins to show: YPG medium, pH 4, 37° C.
# Experimental: In the experiments described, the growth characteristics of the yeast Saccharomyces cerevisiae 3053 E000 were measured in the presence of different concentrations of selenium in the form of sodium selenite, selenomethionine, or 2-hydroxy-4-methylseleno-butanoic acid and compared to the growth characteristics in the absence of additives (control). The pre-culture of the strain Saccharomyces cerevisiae 3053-E000 is carried out in liquid YPG medium, at 37° C., under orbital agitation (250 rpm) for 24 h.
# The culture is formed from an inoculum (1.10^6 UFC/ml) of the pre-culture described previously in 100 mL of YPG medium, at pH=4 at a temperature of 37° C. under agitation (250 rpm) and according to the following conditions:
# The cultures of Saccharomyces cerevisiae 3053-E000 were monitored by absorbance measurements at 550 nm and by CPU counting on YPG gelose plates.
# The concentrations tested for the addition of selenium selenite are 0.5 mg/L, 10 mg/L and 20 mg/L in selenium equivalent, i.e. respectively: 1.1 mg/L, 22.22 mg/L and 44.44 mg/L of sodium selenite.
# The concentrations tested for the addition of selenomethionine are 0.5 mg/L, 2 mg/L, 10 mg/L and 20 mg/L in selenium equivalent, i.e. respectively 1.25 mg/L, 5 mg/L, 25 mg/L and 50 mg/L of selenomethionine
# (§1) The concentrations tested for the addition of 2-hydroxy-4-methylseleno-butanoic acid are 0.5 mg/L, 2 mg/L, 10 mg/L and 20 mg/L in selenium equivalent, i.e. respectively 1.25 mg/L, 5 mg/L, 25 mg/L and 50 mg/L of 2-hydroxy-4-methylseleno-butanoic acid (THD-177, Tetrahedron, France, CAS: 873660-49-2).
# [3] = test system: Lactobacillus paracasei 3052-E000; assay type: cell-based; settings: for inhibitor effect on the growth or reduction in the biomass production yield: up to 20 mg/L (in selenium equivalent); for reduction in the biomass production yield: 48 h
# Experimental: In this experiment, the growth characteristics of the bacterium Lactobacillus paracasei were measured in the presence of different concentrations of selenium in the form of sodium selenite, selenomethionine, 2-hydroxy-4-methylseleno-butanoic acid and compared with the growth characteristics in the absence of additives.
# The pre-culture of the strain Lactobacillus paracasei 3052-E000 is carried out in liquid MRS medium, at 42° C., without agitation for 24 h. The culture of the strain Lactobacillus paracasei 3052-E000 was carried out from an inoculum (1.10^7 UFC/ml) of the above pre-culture in 100 mL of MRS medium, at pH=6.4 and at a temperature of 42° C. (without agitation).
# The cultures were monitored by absorbance measurements at 550 nm and CFU counting carried out on MRS plate.
# The concentrations tested for the addition of selenium selenite are 0.5 mg/L, 2 mg/L, 10 mg/L and 20 mg/L in selenium equivalent, i.e. respectively 1.11 mg/L, 4.44 mg/L, 22.22 mg/L and 44.44 mg/L of sodium selenite. The graph of FIG. 4 makes it possible to visualise the growth of the strain Lactobacillus paracasei 3052-E000 in the presence of sodium selenite.
# The concentrations tested for the addition of selenomethionine are 0.5 mg/L, 2 mg/L, 10 mg/L and 20 mg/L in selenium equivalent, i.e. respectively 1.25 mg/L, 5 mg/L, 25 mg/L and 50 mg/L of selenomethionine.
# as §1
# In order to complete the study of the impact of the addition of 2-hydroxy-4-methylseleno-butanoic acid, at higher values, concentrations of 40 and 60 mg/L were tested under the same conditions as previously.
# [4] = 10 mg/L (in selenium equivalent)
# [5] = 20 mg/L (in selenium equivalent)
# [6] = 10 and 20 mg/L (in selenium equivalent)
structure (smiles),measurement,setting,value
C[Se]CC[C@H](N)C(=O)O [L(+)-selenomethionine],toxicity compared with an intake in the form of sodium selenite,[1],much less toxic
"C[Se]CCC(O)C(=O)O (stereo not shown) [THD 177, 2-hydroxy-4-methylseleno-butanoic acid]",viability reduced by,[2]; [4],36%
same,yield of biomass obtained (change),[2]; [4],−15%
same,biomass yield reduced by,[2]; [5],36%
same,viability reduced by,[2]; [5],50%
same,concentration from which an effect on growth / biomass yield begins to show,[2],10 mg/L (in selenium equivalent)
same,inhibitor effect on the growth and the biomass yield,[3]; 40 and 60 mg/L,no inhibitor effect was observed
same,inhibitor effect on the growth or reduction in the biomass production yield,[3],does not show an inhibitor effect
C[Se]CC[C@H](N)C(=O)O [selenomethionine],yield of biomass obtained (change),[2]; 2 mg/L (in selenium equivalent),−29%
same,yield of biomass obtained (change),[2]; [4],−50%
same,concentration from which an effect on growth / biomass yield begins to show,[2],2 mg/L (in selenium equivalent)
same,inhibitor effect on the growth or reduction in the biomass production yield,[3],does not show an inhibitor effect
O=[Se](O)O [sodium selenite],yield of biomass obtained (change),[2]; [4],−50%
same,toxicity for Saccharomyces cerevisiae,[2]; [5],very toxic
same,concentration from which an effect on growth / biomass yield begins to show,[2],10 mg/L (in selenium equivalent)
same,reduction in the biomass production yield,[3]; 0.5 mg/L (in selenium equivalent),25%
same,toxicity on Lactobacillus paracasei,[3]; [6],shows a toxicity
same,reduction in the biomass production yield,[3]; [6],90%
same,concentration from which an inhibitor effect on growth begins to show,"[3]; MRS medium, pH 6.4, 42° C.",0.5 mg/L (in selenium equivalent)

# Source: patent US8535931B2, “Non-photosynthetic micro-organisms enriched with organic selenium from seleno-hydroxyacid compounds and applications thereof in the field of nutrition, cosmetics and pharmacueuticals” (priority 2008, dated 2013)
